The text below walks through data of ChEMBL document CHEMBL5625265, “Exploring 2-methyl-substituted vitamin K3 derivatives with potent inhibitory activity against the 3CL protease of SARS-CoV-2” (Bioorg Med Chem Lett, 2024).

Molecules are shown by their SMILES. pIC50: −log10 of the molar value. Calls of active or inactive are those of the source. The rule behind the calls is not given here.

Assay [1] deals with Replicase polyprotein 1ab (Severe acute respiratory syndrome coronavirus 2) (UniProt P0DTD1). The experiment in a line: Inhibition of SARS-CoV-2 3CL protease at 10 uM using Dabcyl-KTSAVLQSGFRKME-Edans as a substrate preincubated for 30 mins followed by substrate addition and measured after for 4 hrs by FRET assay relative to control. To be noted: time 4.5 hrs.
For assay [2], the target named is Replicase polyprotein 1ab (Severe acute respiratory syndrome coronavirus 2, UniProt P0DTD1). Briefly: Inhibition of SARS-CoV-2 3CL protease using Dabcyl-KTSAVLQSGFRKME-Edans as a substrate preincubated for 30 mins followed by substrate addition and measured after for 4 hrs by FRET assay.

In the case of `CCSC1=CC(=O)c2ccccc2C1=O`, in assay [1], the inhibition entry was “Active”. The same molecule showed a pIC50 in assay [2] of 5.27.
`CC(=O)CCC1=CC(=O)c2ccccc2C1=O`: in assay [1], the inhibition entry was “Active”.
`O=C1C=C(C2CC2)C(=O)c2ccccc21`: the inhibition entry in assay [1] is “Active”.
On the same count and under the same terms, the entry for `O=C1C=C(Oc2ccccc2)C(=O)c2ccccc21` is “Active”; for `CC1=CC(=O)c2ccccc2C1=O` it is 40%.
In the case of `O=C1C=C(Sc2ccccc2)C(=O)c2ccccc21`, in assay [1], the inhibition result was “Active”. The negative-log IC50 (pIC50) in assay [2] is 6.02.
On to `O=C1C=C(C2CCC2)C(=O)c2ccccc21`, for which, in assay [1], the inhibition entry was “Active”.
